Source: patent publication US4239664A, “Anti-thrombogenic PVP-heparin polymer” (Research Corporation, priority 1978, dated 1980)

Assays:
anticoagulant activity = assay: Biological (anticoagulant) activity of heparin and PVP-heparins; format: biochemical; conditions: Table I; heparin 100
[1] = in vivo; cited from earlier work

Heparin
% Biological Activity (anticoagulant activity): 100% | Solubility in Water: 70 g/100 ml | dose dependence of half-life in man [1]: does not increase | half-life of heparin in man [1]: 1 - 11/2
